The text below walks through data of publication PMC8945599, “VEGFA, B, C: Implications of the C-Terminal Sequence Variations for the Interaction with Neuropilins” (Biomolecules, 2022).

Where no end group is shown, it is not given here.

In test [1] the target is T1, NRP1-b1 (b1 domain of Neuropilin-1) (Homo sapiens, UniProt O14786).
T1 construct: 6-His-tag with TEV protease cleavage site (N); made in house; host or cells: Rosetta-gami2(DE3)pLysS E. coli
T1 sequence (O14786 275-424 limits assumed): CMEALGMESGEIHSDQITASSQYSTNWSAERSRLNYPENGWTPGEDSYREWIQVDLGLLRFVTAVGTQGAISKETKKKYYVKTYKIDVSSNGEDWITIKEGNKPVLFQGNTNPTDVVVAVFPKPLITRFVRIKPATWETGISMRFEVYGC
The experiment in a line: Surface plasmon resonance, peptide binding to immobilised NRP1-b1. Conditions: SPR, Biacore T200, protein immobilised on CM5 chip (1000 RU), peptide 64 µM to 0.125 µM, 20 mM Tris pH 7.9, 50 mM NaCl. From the text:
(§1) Proteins were expressed and purified as previously described. NRP1-b1 and NRP2-b1 were expressed in Rosetta-gami2(DE3)pLysS E.coli cells that were transformed with a pET-15b vector containing NRP1-b1 and NRP2-b1 sequences with an N-terminal 6-His-tag and a TEV protease cleavage site. After the cells were harvested by centrifugation and lysed by sonication, the proteins were purified from the filtered cell extract. Purification protocol, as described in Tsai et al. (2016), included a combination of nickel ion-affinity chromatography, size exclusion, and a final ion exchange chromatography step.
(§2) SPR was performed using the Biacore T200 Enhanced Sensitivity model (GE, Healthcare, UK). Protein was immobilised on a CM5 chip, following the manufacturer’s instructions until it reached 1000 response units (RU). SPR was run with a range of peptide concentrations from 64 µM to 0.125 µM, in a buffer of 20 mM Tris pH 7.9, 50 mM NaCl. Biacore T200 evaluation software was used for data analysis.
(In general: In SPR one partner is held on a chip, and binding of the other changes the refractive index at the surface.)

Test [2] addresses T2, NRP2-b1 (b1 domain of Neuropilin-2) (Homo sapiens, UniProt O60462).
T2 construct: 6-His-tag with TEV protease cleavage site (N); made in house; host or cells: Rosetta-gami2(DE3)pLysS E. coli
T2 sequence (O60462 277-427 limits assumed): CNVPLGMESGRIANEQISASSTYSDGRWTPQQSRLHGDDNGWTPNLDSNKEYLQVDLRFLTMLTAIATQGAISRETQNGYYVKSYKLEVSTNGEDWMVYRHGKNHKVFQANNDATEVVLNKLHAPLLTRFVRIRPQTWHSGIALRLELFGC
The experiment in a line: Surface plasmon resonance, peptide binding to immobilised NRP2-b1. Conditions: SPR, Biacore T200, protein immobilised on CM5 chip (1000 RU), peptide 64 µM to 0.125 µM, 20 mM Tris pH 7.9, 50 mM NaCl.
Description: as §1, §2

The target in a further test is T3, NRP1-b1 (Homo sapiens, UniProt O14786).
T3 construct: 6-His-tag with TEV protease cleavage site (N); made in house; host or cells: Rosetta-gami2(DE3)pLysS E. coli
T3 sequence (O14786 275-424 limits assumed): T1 sequence (O14786 275-424 limits assumed)
Description: Thermostability shift assay, NRP1-b1. It counts as binding. Conditions: 5 µM protein, 1 mM ligand, 10X SYPRO Orange, LightCycler 480 II; average of four measurements. Here is the method:
Thermostability assays were performed on the LightCycler 480 II (Roche) with a final concentration of 5 µM protein, 1 mM ligand and 10X of SYPRO Orange, in DMSO (Thermo Fisher). Negative and positive control experiments were performed using the protein with buffer alone or the ligand without protein and the protein with a strongly binding ligand EG01377, respectively. Experiments were carried out in duplicates on two separate days for two different batches of protein preparations and the values in the table represent the averages from the four measurements.

In the case of Ac-AAAAR [Con, reference compound], the Kd (commonly the equilibrium constant for the complex coming apart) in test [1] was determined as 33.1 µM; in test [2], 92.2 µM. For the same substance, the “shift in Tm (ΔTm) of NRP1-b1” value at NRP1-b1 was found to be 3.0 ± 0.2 °C.
As to Ac-DKPRR [A165], the equilibrium dissociation constant (Kd) turned out to be 7.87 µM in test [1] and 30.9 µM in test [2]. Moreover, at NRP1-b1, the “shift in Tm (ΔTm) of NRP1-b1” value amounted to 3.5 ± 0.2 °C.
With Ac-RKLRR [B167], the Kd was found to be 4.12 µM in test [1] and 13 µM in test [2].
Turning to Ac-RPQPR [B186], the values for the Kd in test [1] and in test [2] were 10 µM and 24.8 µM, respectively. At NRP1-b1, the “shift in Tm (ΔTm) of NRP1-b1” value is 3.6 ± 0.2 °C.
The like results for Ac-SIIRR [C] were, in that order, 33.2 µM, 27.1 µM and 2.0 ± 0.3 °C.
